Data set [1] has as its system C6 glioma cells. Put plainly: MTT cytotoxicity in C6 glioma cells. It counts as cell-based. As for the experimental part:
(§1) C6 glioma cells and BJ fibroblast cells (ATCC, Manassas, VA, USA) were used as models for brain cancer and normal cells, respectively. The cells were cultured in DMEM media (Sigma–Aldrich, St. Louis, MO, USA) supplemented with 10% fetal bovine serum (Merck Millipore, Burlington, MA, USA) and 1% penicillin-streptomycin (Caisson Labs, Smithfield, UT, USA). The cells were maintained in an incubator with 5% CO2 at 37 °C and 95% humidity.
(§2) Cell viability was assessed using the 3-(4,5-dimethylthiazol-2-yl)-2,5-diphenyltetrazolium bromide (MTT) assay (Sigma–Aldrich, St. Louis, MO, USA). Cells were seeded in 96-well plates at a density of 2 × 10^4 cells/well and incubated for 24 h. The cells were then treated with various concentrations of THC and equimolar concentrations of THC-amino acid conjugates (0, 31.25, 62.5, 125, 250, and 500 μM) for 24 and 48 h in cancer cells, and for 24 h in normal cells. After treatment, the media were removed and replaced with MTT solution (0.5 mg/mL), followed by incubation for 3 h. The resulting formazan crystals were dissolved in DMSO (Sigma–Aldrich, St. Louis, MO, USA). Absorbance was measured using a microplate reader at a wavelength of 570 nm (CLARIOstar®, BMG Labtech, Ortenberg, Germany).

In another data set the test system is BJ fibroblast cells. Put plainly: MTT cytotoxicity in normal BJ fibroblast cells. It counts as cell-based. Particulars: 24 h treatment. As for the experimental part: as §1, §2
For data set [2], the system named is C6 glioma cells. Description: Hoechst 33342/PI double staining assay (apoptosis and necrosis). The data set is classed as cell-based. Particulars: 20 and 40 µM and higher concentrations. The procedure:
Apoptosis and necrosis were assessed using the Hoechst 33342/PI double staining assay (Sigma–Aldrich, St. Louis, MO, USA). After treatment, the cells were viewed using a fluorescence microscope (Olympus IX51 inverted microscope, Tokyo, Japan). Hoechst 33342 dye stains cells with blue color, either dead or alive. Apoptotic cells are indicated by condensed and fragmented chromatin. Propidium iodide (PI) stains cells in red, which can only stain damaged cells and is used as an indicator of cellular necrosis.

For data set [3], the system named is C6 glioma cells. Description: Annexin V/PI double staining by flow cytometry. It counts as cell-based. The conditions noted are these: 20 μM, 24 h, mean ± S.D., n = 3. The procedure: Annexin V/PI staining by flow cytometry was performed to indicate the stage of cell fate, including necrosis, early and late apoptosis, and viable cells. Briefly, the cells were treated with the THC and THC-di-Phe at 20 µM. After 24 h, the cells were harvested and further analyzed by flow cytometry. Annexin V/PI staining by flow cytometry was performed according to the manufacturer’s instructions (BioLegend, San Diego, CA, USA).
In general terms: A flow cytometer gives signals particle by particle.

Data set [4] has as its system C6 glioma cells. Description: MTT cell viability of BCH and of THC-di-Phe with or without LAT1 inhibitor BCH. The data set is classed as cell-based. Particulars: 24 h. As for the experimental part:
To investigate the role of THC-conjugated amino acid conjugates on LAT1, THC-amino acid conjugates were co-incubated with an inhibitor of LAT1 (BCH). The cells were seeded overnight at 2 × 10^4 cells/well in 96-well plates. Initially, the cells were treated with different concentrations of BCH (5, 10, and 20 mM) for 24 h, followed by the MTT assay to identify the maximum non-toxic concentration of BCH. Then, the cells were treated with THC-di-Phe at 12.5, 25, and 50 μM concentrations with or without 5 mM BCH for 24 h. The cell viability was measured by MTT assay.

The test system of data set [5] is C6 glioma cells. Description: Cell scratch (wound closure, migration) assay. The data set is classed as cell-based. The conditions noted are these: 10 µM, % of wound closure compared to 0 h; for wound closure at 24 h: control 71.4%; for wound closure at 48 h: control 100%. The procedure:
Properties of cell migration were assayed using a cell scratch assay. Briefly, the cells were seeded in 24-well plates at a concentration of 100,000 cells/well, followed by treatment of the cells using 10 µM THC and 10 µM THC-di-Phe. The cell layers were then scrapped with a 200 µL pipette tip to form a wound. The ability of the cells to close the wound was observed under an inverted microscope (Nikon TS2, Tokyo, Japan) at 0, 24, and 48 h post-treatment. Wound closure was further analyzed using ImageJ software (version 1.53e, Wayne Rasband and contributors, National Institutes of Health, USA).

Data set [6] concerns C6 glioma cells. Description: MTT cytotoxicity in C6 glioma cells. The conditions noted are these: tested at 5 to 40 µM, Supplementary Figure S29. The data set is classed as cell-based.
For another data set, the system named is P70S6K/S6 pathway. Put plainly: Western blot of P70S6K and S6 phosphorylation. The data set is classed as cell-based. Particulars: 10 µM, C6 cells, 8, 16 and 24 h post-treatment. As for the experimental part:
C6 cells were seeded in a 6-well plate with a density of 1 × 10^6 cells for 24 h. The cells were treated with THC and THC-di-Phe for 8, 16, and 24 h. The cells were washed in ice-cold phosphate-buffered saline (PBS) and lysed with ice-cold lysis buffer containing protease and phosphatase inhibitors. The cells in the lysis buffer were centrifuged at 14,000 rpm at 4 °C for 10 min. The protein concentration in the supernatant was quantified using Pierce™ BCA protein assay. After the quantification, equal amounts of protein were resolved by SDS–PAGE and transferred into a nitrocellulose membrane. The membranes were then blocked with 5% dry milk and probed with primary antibody including p70S6K, p-p70S6K, S6, p-S6 (Cell Signaling Technology (Beverly, MA, USA), followed by adding the species-specific horseradish […] conjugated secondary antibody (Cell Signaling Technology (Beverly, MA, USA). The membrane was incubated with a chemiluminescent detection kit solution, followed by X-ray film imaging to visualize protein levels. The level of phosphorylation of each protein was normalized to its normal form.

Another data set deals with C6 cells. Description: Cell proliferation assay (MTT). It counts as cell-based. The conditions noted are these: 10 µM, 24 h and 48 h post-treatment. As for the experimental part:
The effects of THC-di-Phe on cell cancer proliferation were assessed using a cell proliferation assay. Briefly, C6 cells were seeded in a 96-well plate at a concentration of 5000 cells/well and then incubated overnight. Cells were then incubated with 10 µM THC and THC-di-Phe for 24 and 48 h. The morphology of the cells was observed under a light microscope. Then, the cells were incubated with MTT solution (0.5 mg/mL), and the formed formazan crystals were dissolved in DMSO. The absorbance was measured using a microplate reader (CLARIOstar®, BMG Labtech, Ortenberg, Germany) at the wavelength of 570 nm.

Data set [7] has as its system C6 glioma cells. More on the design: method as in PMID 18520037. The conditions noted are these: cited from earlier work.
A further data set has as its system LAT1. More on the design: method as in PMID 18520037. Particulars: BCH 3 mM, C6 glioma cells; cited from earlier work.
The mark [8] stands for this setting: 24 h treatment, read-out: IC50 at 24 h, C6 cells.
Where [9] appears, read: 48 h treatment, read-out: IC50 at 48 h, C6 cells.

Like-named read-outs stand apart in the source and are kept apart here.

What is called IC50 is the concentration needed to halve the response being measured.

Take “(Z)-2,2′-(((((3-Hydroxy-5-oxohept-3-ene-1,7-diyl)bis(2-methoxy-4,1-phenylene))bis(oxy))bis (carbonyl))bis(azanediyl))bis(4-methylpentanoic acid) [THC-di-Leu]”: the IC50 in the data set with C6 glioma cells [1] (setting [8]) was 350 ± 52.6 µM; in the data set with C6 glioma cells [1] (setting [9]), 350 ± 129 µM; with BJ fibroblast cells, more than 500 µM.

As to “(Z)-2,2′-(((((3-Hydroxy-5-oxohept-3-ene-1,7-diyl)bis(2-methoxy-4,1-phenylene))bis(oxy))bis (carbonyl))bis(azanediyl))bis(3-phenylpropanoic acid) [THC-di-Phe]”, the “induction of cellular apoptosis (Hoechst 33342/PI)” value in the data set with C6 glioma cells [2] is reported as “observed”. Moreover, in the data set on C6 glioma cells [3], the necrotic cell death is given as 5.01 ± 0.64% and the “percentage of late apoptotic cells” value was 6.07 ± 1.13%. Further, in the data set with C6 glioma cells [4] (THC-di-Phe 12.5 and 25 μM, 5 mM BCH), the “cell death on co-incubation with BCH vs THC-di-Phe alone, lower concentrations” value is given as “significantly increased cell death”. Besides, in the data set with C6 glioma cells [4] (THC-di-Phe 50 and 100 μM, 5 mM BCH), the “cell death with or without BCH, higher concentrations” value is listed as “comparable cellular death”. Further, in the data set with C6 glioma cells [5], the “wound closure at 24 h” value was 32.8% and the “wound closure at 48 h” value came to 65.2%. The “concentrations toxic to C6 glioma cells” value in the data set with C6 glioma cells [6] is reported as “above 10 µM”. In addition, in the data set with C6 glioma cells [1] (setting [8]), the IC50 is 35.8 µM. The IC50 with C6 glioma cells [1] (setting [9]) is 26.8 µM. For the same molecule, the concentration for half-maximal inhibition (IC50) in the data set on BJ fibroblast cells stood at 470 ± 20.4 µM. Further, in the data set on P70S6K/S6 pathway, the “phosphorylation of P70S6K and S6 compared to control” value was “significantly inhibited”. In the data set with C6 cells, the “proliferation ability of C6 cells compared to the control” value is on record as “significantly inhibited”.

Turning to “(Z)-2,2′-(((((3-Hydroxy-5-oxohept-3-ene-1,7-diyl)bis(2-methoxy-4,1 phenylene))bis(oxy))bis (carbonyl))bis(azanediyl))diacetic acid [THC-di-Gly]”, the IC50 in the data set with C6 glioma cells [1] (setting [8]), with C6 glioma cells [1] (setting [9]) and with BJ fibroblast cells was more than 500 µM each time.

“(Z)-2,2′-(((((3-Hydroxy-5-oxohept-3-ene-1,7-diyl)bis(2-methoxy-4,1-phenylene))bis(oxy))bis (carbonyl))bis(azanediyl))bis(3-methylpentanoic acid) [THC-di-Ile]”: the IC50 in the data set on C6 glioma cells [1] (setting [8]), with C6 glioma cells [1] (setting [9]) and in the data set on BJ fibroblast cells was more than 500 µM in each case.

The molecule `COc1cc(CCC(=O)CC(=O)CCc2ccc(O)c(OC)c2)ccc1O` [THC, Tetrahydrocurcumin] returned a necrotic cell death in the data set with C6 glioma cells [3] of 2.73 ± 0.15%. Besides, in the data set with C6 glioma cells [3], the “percentage of late apoptotic cells” value is on record as 2.33 ± 0.32%. In the data set with C6 glioma cells [5], the “wound closure at 24 h” value was found to be 46.3%. In the data set with C6 glioma cells [5], the “wound closure at 48 h” value was determined as 81.4%. In addition, the IC50 with C6 glioma cells [1] (setting [8]) was found to be 111 µM; with C6 glioma cells [1] (setting [9]), 52.9 µM; in the data set with BJ fibroblast cells (Homo sapiens), 184 ± 31.8 µM. The “phosphorylation of P70S6K and S6 compared to control” value in the data set on P70S6K/S6 pathway is listed as “did not significantly modulate”. In the data set on C6 cells, the “proliferation ability of C6 cells compared to the control” value is recorded as “significant reduction of cell proliferation by THC was only observed 48 h post-treatment”.

The molecule `NC1(C(=O)O)CC2CCC1C2` (centres unmarked) [BCH, 2-Aminobicyclo-(2,2,1)-heptane-2-carboxylic acid] came in with a maximum non-toxic concentration in the data set with C6 glioma cells [4] (C6 glioma cells, MTT) of 5 mM. Also, the “cytotoxicity at 3 mM” value with C6 glioma cells [7] (BCH 3 mM, 24 h incubation) was “no significant cytotoxicity”. The “cytotoxicity at 10 mM” value in the data set on C6 glioma cells [7] (BCH 10 mM) is listed as “significant toxicity”. For the same molecule, in the data set on LAT1, the “inhibition of LAT1 activity” value is on record as “completely inhibit”.
